Experimental data: PubChem BioAssay (NCI)
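Test compounds were applied to cells in 96-well plates for 48 hours at 5 doses. TGI marks complete inhibition of growth.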

What was measured:
Experiment in all cases: growth of human tumour cells (NCI), 48 h
[1] = system: CAKI-1 renal
[2] = system: HOP-92 NSCLC
[3] = system: ACHN renal
[4] = system: MALME-3M melanoma
[5] = system: HT29 colon
[6] = system: K-562 leukemia
[7] = system: M14 melanoma
[8] = system: NCI-H460 lung
[9] = system: HOP-62 NSCLC
[10] = system: SK-MEL-5 melanoma
[11] = system: CCRF-CEM leukemia
[12] = system: SK-MEL-2 melanoma
[13] = system: NCI-H522 lung
[14] = system: OVCAR-3 ovarian
[15] = system: HCC-2998 colon
[16] = system: 786-0 renal
[17] = system: DU-145 prostate

Row | SMILES | TGI [1] | TGI [2] | TGI [3] | TGI [4] | TGI [5] | TGI [6] | TGI [7] | TGI [8] | TGI [9] | TGI [10] | TGI [11] | TGI [12] | TGI [13] | TGI [14] | TGI [15] | TGI [16] | TGI [17]
1 | Cc1cc(N(CCC#N)CCC#N)ccc1/C=C/C(=O)Nc1cccc(Cl)c1 | > 100 µM | > 100 µM | > 100 µM | > 100 µM | > 100 µM | > 100 µM | > 100 µM | > 100 µM | > 100 µM | > 100 µM | > 100 µM | > 100 µM | > 100 µM | > 100 µM | > 100 µM | > 100 µM | –
2 | CN(CCO)c1nc2c(c(=O)[nH]1)CCC2 | > 100 µM | > 100 µM | > 100 µM | > 100 µM | > 100 µM | > 100 µM | > 100 µM | > 100 µM | > 100 µM | > 100 µM | > 100 µM | > 100 µM | > 100 µM | > 100 µM | > 100 µM | > 100 µM | –
3 | CCOc1ccc2nc(NC(=O)c3c/c(=N\NC(=O)C[N+](C)(C)C)c4ccc(O)cc4o3)sc2c1 | 18.6 µM | 6.99 µM | 13.8 µM | 2.56 µM | 13 µM | 6.08 µM | 3.1 µM | 13.4 µM | – | 1.85 µM | 5.96 µM | 6.22 µM | 4.14 µM | 0.402 µM | 20.8 µM | 10.9 µM | –
4 | CCOC1(COP(=O)(OCc2ccccc2)OCc2ccccc2)COC(COP(=O)(OCc2ccccc2)OCc2ccccc2)(OCC)CO1 (stereo not given) | > 100 µM | > 100 µM | > 100 µM | > 100 µM | > 100 µM | > 100 µM | > 100 µM | > 100 µM | > 100 µM | > 100 µM | > 100 µM | > 100 µM | > 100 µM | > 100 µM | > 100 µM | > 100 µM | –
5 | COc1ccc2[nH]c3c(c2c1)CCn1c-3nc2ccccc2c1=O | – | – | > 25 µM | – | – | > 25 µM | > 25 µM | > 25 µM | > 25 µM | > 25 µM | > 25 µM | – | > 25 µM | – | > 25 µM | > 25 µM | –
6 | O=C(c1ccccc1)c1ccc(COc2ccc(C(c3c(O)c4ccccc4oc3=O)c3c(O)c4ccccc4oc3=O)cc2)cc1 | 45 µM | – | 38.1 µM | – | 34.9 µM | 53.3 µM | – | 48.6 µM | 47.4 µM | 37.2 µM | 16.4 µM | 34.9 µM | 38.1 µM | 34.5 µM | 33.5 µM | 61.5 µM | > 100 µM
7 | CN(C)CCCNC(=O)N/N=C/c1cccc([N+](=O)[O-])c1 | – | – | > 100 µM | > 100 µM | > 100 µM | > 100 µM | > 100 µM | > 100 µM | – | > 100 µM | > 100 µM | > 100 µM | > 100 µM | > 100 µM | – | > 100 µM | –
8 | [N-]=[N+]=Nc1c(-c2ccccc2)c(Cl)nc2ccccc12 | > 100 µM | > 100 µM | > 100 µM | > 100 µM | 52.5 µM | > 100 µM | > 100 µM | > 100 µM | > 100 µM | 34.5 µM | > 100 µM | > 100 µM | > 100 µM | > 100 µM | > 100 µM | > 100 µM | –
